# Measurements reported in patent US20150017380A1, “ABSORBENT FOOD PAD HAVING DISCRETE AIRFLOW PASSAGES” (Paper-Pak Industries, priority 2013, published 2015).
# Experiment: SO2 generation of Na2S2O5 in an open environment
# Format: physicochemical
# Procedure: FIG. 6A and FIG. 6B show the results of a test that was performed to establish how Na2S2O5 reacts with the environment, and the effect of changes in relative humidity. 0.1 g of Na2S2O5 on sampling “boats” were placed on top of a counter; i.e., in an “open” environment. The concentration of SO2 gas (in parts per million, ppm) in the air at about 2.5 cm (about 1″) above the Na2S2O5 was measured daily for more than 50 days of testing. The relative humidity was also measured for each day of testing.
compound,measurement,setting,value
"O=S([O-])S(=O)(=O)[O-].[Na+].[Na+] [Na2S2O5, sodium metabisulfite]",average SO2 concentration generated,"0.1 grams of Na2S2O5, open environment, air about 2.5 cm above the sample, up to 50 days",0.5 ppm
same,duration of continuous SO2 generation,conclusion from the several tests,more than 50 days
